# Measurements as given in the supplement of paper PMC10307832.
# Experiments:
# Experiment in all cases: relative viability (nuclei count vs DMSO), 5 days (fraction); higher = more cells survive
# Adavosertib + Vorinostat = compound: C=CCn1c(=O)c2cnc(Nc3ccc(N4CCN(C)CC4)cc3)nc2n1-c1cccc(C(C)(C)O)n1 [Adavosertib] + O=C(CCCCCCC(=O)Nc1ccccc1)NO [Vorinostat] (partner 1 µM)
# How it was run: (§1)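 Lung cancer cell lines, seeded in 1536-well plates, were treated the following day by pin tool with a single drug or with five library-drug doses (not always all listed) in √10 steps on top of a fixed anchor-drug dose. Cells were fixed and nuclei stained in one step after 5 days, and nuclei were counted. Relative viability is the nuclei count for treated wells divided by that for vehicle wells, reported as medians of duplicate plates.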
# Nelarabine + Crizotinib = compound: COc1nc(N)nc2c1ncn2[C@@H]1O[C@H](CO)[C@@H](O)[C@@H]1O [Nelarabine] + C[C@@H](Oc1cc(-c2cnn(C3CCNCC3)c2)cnc1N)c1c(Cl)ccc(F)c1Cl [Crizotinib] (partner 1 µM)
# How it was run: as §1
# Nelarabine + Foretinib = compound: COc1nc(N)nc2c1ncn2[C@@H]1O[C@H](CO)[C@@H](O)[C@@H]1O [Nelarabine] + COc1cc2c(Oc3ccc(NC(=O)C4(C(=O)Nc5ccc(F)cc5)CC4)cc3F)ccnc2cc1OCCCN1CCOCC1 [Foretinib] (partner 0.25 µM)
# How it was run: as §1
# Adavosertib + AZD7762 = compound: C=CCn1c(=O)c2cnc(Nc3ccc(N4CCN(C)CC4)cc3)nc2n1-c1cccc(C(C)(C)O)n1 [Adavosertib] + NC(=O)Nc1cc(-c2cccc(F)c2)sc1C(=O)N[C@H]1CCCNC1 [AZD7762] (partner 0.2 µM)
# How it was run: as §1
Cell Line,relative viability (Adavosertib + Vorinostat; first compound 0.01 µM),relative viability (Adavosertib + Vorinostat; first compound 0.03162 µM),relative viability (Adavosertib + Vorinostat; first compound 0.1 µM),relative viability (Adavosertib + Vorinostat; first compound 0.3162 µM),relative viability (Nelarabine + Crizotinib; first compound 0.01 µM),relative viability (Nelarabine + Crizotinib; first compound 0.03162 µM),relative viability (Nelarabine + Crizotinib; first compound 0.1 µM),relative viability (Nelarabine + Crizotinib; first compound 0.3162 µM),relative viability (Nelarabine + Crizotinib; first compound 1 µM),relative viability (Nelarabine + Foretinib; first compound 0.01 µM),relative viability (Nelarabine + Foretinib; first compound 0.03162 µM),relative viability (Nelarabine + Foretinib; first compound 0.1 µM),relative viability (Nelarabine + Foretinib; first compound 0.3162 µM),relative viability (Nelarabine + Foretinib; first compound 1 µM),relative viability (Adavosertib + AZD7762; first compound 0.01 µM),relative viability (Adavosertib + AZD7762; first compound 0.03162 µM),relative viability (Adavosertib + AZD7762; first compound 0.1 µM),relative viability (Adavosertib + AZD7762; first compound 0.3162 µM)
ChaGo-K-1,0.747,0.74,0.779,0.741,1.11,1.01,1.32,1.23,1.17,0.971,0.826,0.82,0.947,0.882,0.918,0.836,0.732,0.29
NCI-H650,0.367,0.428,0.443,0.333,0.627,0.548,0.613,0.693,0.746,1.09,1.04,0.968,0.886,1.13,0.736,0.809,0.411,0.221
NCI-H1651,0.524,0.626,0.567,0.538,0.959,0.818,0.902,0.891,0.899,1.12,0.782,0.948,0.718,0.912,0.415,0.299,0.264,0.132
NCI-H1993,0.725,0.791,0.84,1.05,0.96,0.891,0.775,0.93,1.02,0.845,0.712,0.737,0.831,0.708,0.905,0.828,0.697,0.807
HCC-827,0.716,0.868,0.873,0.885,0.902,0.811,0.748,0.682,0.607,1.01,0.925,0.87,0.822,0.716,0.196,0.166,0.179,0.15
NCI-H1944,0.541,0.531,0.563,0.369,1.12,1.06,1.16,1.08,1.02,1.09,0.896,0.776,0.917,0.834,0.511,0.31,0.23,0.164
NCI-H2170,0.866,0.818,0.788,0.676,1.47,1.01,1.24,1.35,1.26,1.21,0.974,0.934,1.02,1.07,0.919,0.838,0.725,0.266
BEN,0.628,0.553,0.669,0.592,1.37,0.869,0.896,0.88,0.929,0.583,0.744,0.655,0.638,0.556,0.571,0.622,0.632,0.451
HARA,0.485,0.629,0.592,0.587,1.21,1.09,0.909,1.24,1.12,1,1.07,0.834,1.23,1.03,0.296,0.192,0.155,0.129
NCI-H1437,0.985,0.784,0.936,0.816,1.27,0.844,0.912,0.895,0.905,1.4,1.18,1.23,1.25,1.15,1.11,1.11,1.15,0.581
201T,0.953,1.01,0.95,1.05,1.04,0.968,0.84,1.06,1.02,1.46,–,1.04,1.03,1.05,0.615,0.537,0.471,0.267
NCI-H23,0.627,0.469,0.401,0.185,0.505,0.485,0.297,0.495,0.515,1.13,0.862,0.94,1.09,0.948,0.227,0.143,0.118,0.142
EKVX,0.843,0.718,0.697,0.682,1.16,0.83,0.894,1.41,0.979,0.966,0.803,0.732,0.614,0.777,0.595,0.731,0.635,0.799
NCI-H1915,0.552,0.521,0.53,0.373,1.23,0.941,0.953,0.916,0.881,1.13,1.03,1.16,1.1,1.12,0.724,0.657,0.566,0.238
LU99A,0.485,0.486,0.462,0.307,0.557,0.534,0.582,0.627,0.622,0.934,0.683,0.706,0.801,0.889,0.295,0.196,0.184,0.122
LCLC-103H,0.834,0.78,0.755,0.739,1.12,1.03,1.07,1.08,1.02,0.958,0.825,0.72,0.815,0.79,0.786,0.783,0.775,0.408
LK-2,0.265,0.362,0.351,0.306,0.222,–,0.223,0.205,0.206,1.3,–,1.19,1.17,1.22,0.29,0.374,0.236,0.168
NCI-H1755,0.935,0.864,0.682,0.546,0.941,0.908,0.874,0.969,0.946,0.939,0.82,0.928,1.05,1.01,0.455,0.33,0.327,0.253

Cell Line,relative viability (Adavosertib + Vorinostat; first compound 0.01 µM),relative viability (Adavosertib + Vorinostat; first compound 0.03162 µM),relative viability (Adavosertib + Vorinostat; first compound 0.1 µM),relative viability (Adavosertib + Vorinostat; first compound 0.3162 µM),relative viability (Nelarabine + Crizotinib; first compound 0.01 µM),relative viability (Nelarabine + Crizotinib; first compound 0.03162 µM),relative viability (Nelarabine + Crizotinib; first compound 0.1 µM),relative viability (Nelarabine + Crizotinib; first compound 0.3162 µM),relative viability (Nelarabine + Crizotinib; first compound 1 µM),relative viability (Nelarabine + Foretinib; first compound 0.01 µM),relative viability (Nelarabine + Foretinib; first compound 0.03162 µM),relative viability (Nelarabine + Foretinib; first compound 0.1 µM),relative viability (Nelarabine + Foretinib; first compound 0.3162 µM),relative viability (Nelarabine + Foretinib; first compound 1 µM),relative viability (Adavosertib + AZD7762; first compound 0.01 µM),relative viability (Adavosertib + AZD7762; first compound 0.03162 µM),relative viability (Adavosertib + AZD7762; first compound 0.1 µM),relative viability (Adavosertib + AZD7762; first compound 0.3162 µM)
NCI-H647,0.632,0.538,0.643,0.212,1.37,1.22,1.13,1.41,1.14,1.22,1.02,1.26,1.26,1.37,0.351,0.358,0.167,0.0858
NCI-H1734,0.923,0.865,0.622,0.33,0.694,0.668,0.568,0.772,0.804,1.01,0.818,0.83,0.949,0.846,0.379,0.315,0.202,0.168
NCI-H727,0.934,1.13,1.13,1.15,1.05,1.06,0.765,0.94,0.865,0.881,0.97,0.912,0.772,0.945,0.636,0.406,0.445,0.394
LC-2-ad,0.708,0.661,0.736,0.704,0.497,0.404,0.444,0.421,0.447,1,1.01,0.848,0.885,0.858,0.792,0.846,0.817,0.62
NCI-H2085,0.782,0.807,0.765,0.649,0.966,0.618,0.766,0.88,0.965,0.96,1.04,0.76,0.881,1.06,0.995,0.909,0.731,0.409
H3255,0.763,0.908,0.828,1,1.04,0.821,0.906,0.881,0.913,–,1.12,0.828,0.938,0.923,0.824,0.854,0.721,0.559
NCI-H441,0.848,0.829,0.881,0.72,0.715,0.856,0.723,0.836,0.716,0.98,0.977,0.918,0.933,0.943,1.12,0.989,0.658,0.355
NCI-H838,0.706,0.694,0.701,0.67,0.975,0.575,0.766,1.02,0.792,1.24,0.937,1.08,1.08,1.09,0.986,0.831,0.722,0.626
NCI-H460,0.712,0.702,0.906,0.355,1.32,1.1,1.02,1.08,1.05,1.49,1.23,1.13,1.23,1.06,0.376,0.507,0.169,0.0591
PC-14,0.841,0.85,0.638,0.183,0.909,0.89,0.875,0.832,0.868,1.04,1.11,1.06,1.02,0.997,0.261,0.289,0.224,0.0765
LXF-289,0.795,0.791,0.768,0.735,0.893,0.779,0.804,0.896,0.781,1.07,0.922,0.988,1.07,0.969,1.08,0.984,0.683,0.231
A-427,0.872,0.865,0.831,0.705,1.02,0.636,0.872,0.957,0.893,1.11,0.97,0.972,1.13,0.954,0.692,0.4,0.327,0.231
LOU-NH91,0.882,0.99,0.908,0.896,0.755,1,0.73,0.739,0.733,0.959,0.938,0.932,0.893,0.977,0.776,0.723,0.645,0.531
RERF-LC-KJ,0.65,0.708,0.629,0.654,0.871,0.954,0.82,0.846,0.902,1.1,1.07,0.923,0.858,0.938,0.987,1.02,1.02,0.878
NCI-H1666,1.06,0.865,0.935,1.01,1.03,0.679,0.949,0.975,1.03,1.05,1.02,0.918,1,1.03,0.766,0.829,0.803,0.625
NCI-H322M,0.782,0.842,0.722,0.564,0.884,0.88,0.853,0.948,0.837,0.972,0.948,0.816,0.939,0.976,0.472,0.427,0.387,0.337
HCC-366,0.353,0.411,0.319,0.219,0.594,0.222,0.51,1.01,0.618,1.03,0.717,0.942,0.974,0.895,0.292,0.21,0.184,0.0419
